Results from the NIST ThermoML archive (doi:10.1016/j.tca.2014.08.035).
± gives the expanded uncertainty stated by the source.

How the values were obtained:
[1] = Molar enthalpy of transition or fusion; settings: DSC
[2] = DTA
[3] = molar enthalpy of transition or fusion; settings: 640.05 K; Crystal 2; DSC
[4] = Solid-liquid equilibrium temperature; settings: 10000 kPa; Crystal 2; DTA

O=S(=O)([O-])O.[NH4+] [ammonium acid sulfate]
Molar enthalpy of transition or fusion ([1]; Crystal): 14.7 ± 0.6 kJ/mol
Normal melting temperature ([2]; Crystal): 144.20 ± 0.5 °C

N.NS(=O)(=O)O [ammonium sulfamate]
Molar enthalpy of transition or fusion ([1]; Crystal): 16.7 ± 0.6 kJ/mol
Normal melting temperature ([2]; Crystal): 132.90 ± 0.4 °C

N.N.O=S(=O)(O)O [ammonium sulfate]
Molar enthalpy of transition or fusion ([1]; Crystal 3): 2.85 ± 1.8 kJ/mol
molar enthalpy of transition or fusion [3]: 2.8 ± 0.8 kJ/mol
Solid-liquid equilibrium temperature [4]: 640.05 ± 0.8 K

O=S(=O)([O-])O.O=S(=O)([O-])[O-].[NH4+].[NH4+].[NH4+] [triammonium hydrogen disulfate]
Molar enthalpy of transition or fusion ([1]; Crystal 1): 32 ± 8 kJ/mol
Molar enthalpy of transition or fusion ([1]; Crystal 2): 2.7 ± 0.3 kJ/mol
Normal melting temperature ([2]; Crystal 1): 229.00 ± 4 °C
Triple point temperature ([2]; Crystal 2): 412.85 ± 0.5 K
